Assay results from US9073967B2, “High salt-resistance antibacterial peptide and method for producing the same” (NATIONAL TSING HUA UNIVERSITY, priority 2011, dated 2015).
≈ marks a conversion by molar mass, not a printed value. Entries after “also recorded” stand apart in the source; their conditions may differ. Where a SMILES comes first, the peptide text is derived from it. [ ]: non-standard residue; d: D form. 2Nal = N[C@@H](Cc1ccc2ccccc2c1)C(=O)O

Legend:
[1] = test system: S. aureus ATCC 19636; assay: Antibacterial ability in different MgCl2 concentration; format: cell-based
[2] = test system: P. arugenosa ATCC 9027; assay: Antibacterial ability in different salt (NaCl) concentration, LYM medium
Experimental: (§4) All bacteria strains of above microbes were cultured in LYM medium. […] The NaCl concentrations in LYM were divided into four groups of 50 mM, 100 mM, 200 mM, 300 mM and the microbes were cultured in the four group of LYM and diluted to a 10^4 CFU/ml bacterial solution. Then added 100 μl of the bacterial solution into 96-well culture dish and added different concentration of antibacterial peptides P113, Phe-P113, Nal-P113 or Bip-P113 to evaluate the antibacterial ability in 50 mM, 100 mM, 200 mM, 300 mM concentration of NaCl. (Note: In addition to NaCl, the LYM medium also contains 5.4 mM KCl, 5.6 mM Na2HPO4, 0.5 mM MgSO4, and 1.0 mM sodium citrate. Besides, 0.4 mg of ZnCl2, 2.0 mg of FeCl3.6H2O, 0.1 mg of CuSO4.5H2O, 0.1 mg of MnSO4.H2O, 0.1 mg of Na2B4O7.10H2O, 700 mg of amino acid mixtures without tryptophan (Clontech), and 20 mg of L-Tryptophan were added per liter of medium. Then added moderate amount of glucose, amino acid, and vitamins mixture from the RPM1-1640 Select-Amine Kit)

[3] = test system: E. coli ATCC 25922; assay: Antibacterial ability in different MgCl2 concentration; format: cell-based
[4] = test system: S. aureus ATCC 25923; assay: Antibacterial ability in different salt (NaCl) concentration, LYM medium
Experimental: as §4

[5] = test system: S. aureus ATCC 29213; assay: Antibacterial ability in different MgCl2 concentration; format: cell-based
[6] = test system: E. coli ATCC 25922; assay: Antibacterial ability in different salt (NaCl) concentration, LYM medium
Experimental: as §4

[7] = test system: P. arugenosa ATCC 27853; assay: as above
Experimental: as §4

[8] = test system: S. aureus ATCC 19636; assay: as above
Experimental: as §4

[9] = test system: P. arugenosa ATCC 9027; assay: Antibacterial ability in different MgCl2 concentration; format: cell-based
[10] = test system: P. arugenosa ATCC 27853; assay: as above; format: cell-based
[11] = test system: Eschericha coli strains ATCC 25922; assay: Antibacterial activity assay, NCCLS microdilution MIC in MHB; format: cell-based
Source text: (§1) For testing the antibacterial ability of Phe-P113, Nal-P113 and Bip-P113 in different salt concentration, we use Antibacterial activity assay to perform the test. Three bacteria strains are used: Eschericha coli strains (ATCC 25922), Staphylococcus aureus strains (ATCC 25923, 29213 and 19636, methicillin-resistant) and Pseudomonas aeruginosa strains (ATCC 27853 and 9027, ampicillin-resistant).
(§2) The microdilution method of National Committee for Clinical Laboratory Standards (NCCLS) is used to evaluate ‘The minimal inhibition concentration (MIC)’. The minimum concentration that can inhibit 90% or more microbes is the ‘minimal inhibition concentration’.
(§3) In the microdilution method, the 1 μl peptide solution (The concentration is between the range of 5000 μg/ml to 78.1 μg/ml) and the 99 μl inoculums (5×10^5 CFU/ml) is mixed incubated in 96-well culture dish coated with polyethylene under 37° C. for 16 hr. Then evaluated the turbidity in O.D.600 by ELISA plate reader (Thermo Max, Molecular Devices, Sunnyvale, Calif.). Take the Muller-Hinton Broth (MHB) and inoculums suspension with adding peptides as negative and positive control group relatively. The result of MIC is the minimum concentration of peptides that can inhibit the bacteria growth (equal to or more than 90%).

[12] = test system: Pseudomonas aeruginosa strains ATTC 9027; assay: as above; format: cell-based
Source text: as §1, §2, §3

[13] = test system: Staphylococcus aureus strains ATCC 25923; assay: as above; format: cell-based
Source text: as §1, §2, §3

[14] = test system: Pseudomonas aeruginosa strains ATCC 27853; assay: as above; format: cell-based
Source text: as §1, §2, §3

[15] = test system: Staphylococcus aureus strains ATCC 29213; assay: as above; format: cell-based
Source text: as §1, §2, §3

[16] = test system: Staphylococcus aureus strains ATCC 19636; assay: as above; format: cell-based
Source text: as §1, §2, §3

[17] = test system: C. tropicalis ATCC 13803 YLO86
[18] = test system: S. aureus ATCC 25923; assay: Antibacterial ability in different MgCl2 concentration; format: cell-based
[19] = test system: Bacteria strains; assay: Antibacterial ability in different salt concentration, overall statement; conditions: different concentration of NaCl / salt
Experimental: as §4

[20] = test system: S. aureus ATCC 29213; assay: Antibacterial ability in different salt (NaCl) concentration, LYM medium
Experimental: as §4

Structure (SMILES): C[C@H](N)C(=O)N[C@@H](CCCCN)C(=O)N[C@@H](CCCNC(=N)N)C(=O)N[C@@H](Cc1ccc2ccccc2c1)C(=O)N[C@@H](Cc1ccc2ccccc2c1)C(=O)NCC(=O)N[C@@H](Cc1ccc(O)cc1)C(=O)N[C@@H](CCCCN)C(=O)N[C@@H](CCCNC(=N)N)C(=O)N[C@@H](CCCCN)C(=O)N[C@@H](Cc1ccccc1)C(=O)N[C@@H](Cc1ccc2ccccc2c1)C(N)=O [Nal-P113] (H-AKR[2Nal][2Nal]GYKRKF[2Nal]-NH2; N-terminus and C-terminus assumed)
- antibacterial ability (MIC) ([1]; Control group): 6.25 µg/mL
- antibacterial ability (MIC) ([1]; MgCl2 0.5 mM): 12.5 µg/mL
- antibacterial ability (MIC) ([1]; MgCl2 1.5 mM): 12.5 µg/mL
- antibacterial ability (MIC) ([1]; MgCl2 2.5 mM): 25 µg/mL
- antibacterial ability (MIC) ([2]; NaCl 50 mM): 6.25
- antibacterial ability (MIC) ([2]; NaCl 100 mM): 50
- antibacterial ability (MIC) ([2]; NaCl 200 mM): 50
- antibacterial ability (MIC) ([2]; NaCl 300 mM): >50
- antibacterial ability (MIC) ([3]; Control group): 3.12 µg/mL
- antibacterial ability (MIC) ([3]; MgCl2 0.5 mM): 3.12 µg/mL
- antibacterial ability (MIC) ([3]; MgCl2 1.5 mM): 6.25 µg/mL
- antibacterial ability (MIC) ([3]; MgCl2 2.5 mM): 12.5 µg/mL
- antibacterial ability (MIC) ([4]; NaCl 50 mM): 1.56
- antibacterial ability (MIC) ([4]; NaCl 100 mM): 3.125
- antibacterial ability (MIC) ([4]; NaCl 200 mM): 12.5
- antibacterial ability (MIC) ([4]; NaCl 300 mM): 50
- antibacterial ability (MIC) ([5]; Control group): 1.56 µg/mL
- antibacterial ability (MIC) ([5]; MgCl2 0.5 mM): 1.56 µg/mL
- antibacterial ability (MIC) ([5]; MgCl2 1.5 mM): 1.56 µg/mL
- antibacterial ability (MIC) ([5]; MgCl2 2.5 mM): 1.56 µg/mL
- antibacterial ability (MIC) ([6]; NaCl 50 mM): 3.125
- antibacterial ability (MIC) ([6]; NaCl 100 mM): 12.5
- antibacterial ability (MIC) ([6]; NaCl 200 mM): 25
- antibacterial ability (MIC) ([6]; NaCl 300 mM): 50
- antibacterial ability (MIC) ([7]; NaCl 50 mM): 1.56
- antibacterial ability (MIC) ([7]; NaCl 100 mM): 12.5
- antibacterial ability (MIC) ([7]; NaCl 200 mM): 50
- antibacterial ability (MIC) ([7]; NaCl 300 mM): >50
- antibacterial ability (MIC) ([8]; NaCl 50 mM): 12.5
- antibacterial ability (MIC) ([8]; NaCl 100 mM): 25
- antibacterial ability (MIC) ([8]; NaCl 200 mM): 50
- antibacterial ability (MIC) ([8]; NaCl 300 mM): 50
- antibacterial ability (MIC) ([9]; Control group): 3.12 µg/mL
- antibacterial ability (MIC) ([9]; MgCl2 0.5 mM): 6.25 µg/mL
- antibacterial ability (MIC) ([9]; MgCl2 1.5 mM): 6.25 µg/mL
- antibacterial ability (MIC) ([9]; MgCl2 2.5 mM): 12.5 µg/mL
- antibacterial ability (MIC) ([10]; Control group): 1.56 µg/mL
- antibacterial ability (MIC) ([10]; MgCl2 0.5 mM): 3.12 µg/mL
- antibacterial ability (MIC) ([10]; MgCl2 1.5 mM): 3.21 µg/mL
- antibacterial ability (MIC) ([10]; MgCl2 2.5 mM): 6.25 µg/mL
- minimal inhibition concentration (MIC) [11]: 12.5
- minimal inhibition concentration (MIC) [12]: 50
- minimal inhibition concentration (MIC) [13]: 6.25
- minimal inhibition concentration (MIC) [14]: 50
- minimal inhibition concentration (MIC) [15]: 6.25
- minimal inhibition concentration (MIC) [16]: 6.25
- MIC [17]: 6.25 µg/mL (≈ 3.58 µM)
- antibacterial ability (MIC) ([18]; Control group): 1.56 µg/mL
- antibacterial ability (MIC) ([18]; MgCl2 0.5 mM): 3.12 µg/mL
- antibacterial ability (MIC) ([18]; MgCl2 1.5 mM): 3.12 µg/mL
- antibacterial ability (MIC) ([18]; MgCl2 2.5 mM): 3.12 µg/mL
- antibacterial ability in different concentration of salt (in words) [19]: better than P-113; also recorded: remains their activity of antibacterial
- antibacterial ability (MIC) ([20]; NaCl 50 mM): 1.56
- antibacterial ability (MIC) ([20]; NaCl 100 mM): 3.125
- antibacterial ability (MIC) ([20]; NaCl 200 mM): 6.25
- antibacterial ability (MIC) ([20]; NaCl 300 mM): 25
